In patent US11612662B2, “Multi-arm polymeric prodrug conjugates of pemetrexed-based compounds” (priority 2010, dated 2023):

How the values were obtained:
in vivo = details: for Days of Deaths (s = surviving at study end): five mice listed singly; for Day of Max. Mean Body Weight Loss (body weight nadir) / % Rx Related Deaths: once each day for ten days; for MTD at 10 days: female, SCID (HsdIcr:Ha (ICR)-Prkdc-scid), iv
Procedure: The purpose of this study was to determine the maximum tolerated dose for pemetrexed (PMX), Compound 20a (from Example 1), Compound 20b (from Example 1), Compound 20c (from Example 1), and Compound 20d (from Example 1) in female SCID mice fed a low folate diet. All compounds were administered intravenously, once each day, for ten consecutive days.
Calculations were made to provide “dose equivalents” between PMX, Compound 20a, Compound 20b, Compound 20c and Compound 20d, which “dose equivalents” along with the “actual dose” administered are provided in Table 2. All dosagese in this example are expressed in terms of “dose equivalents” and adjustments were made for excipients, salts and hydration state.
Female SCID mice (HsdIcr:Ha (ICR)-Prkdc-scid) were obtained from Harlan. They were seven weeks old on Day 1 of the experiment. The mice in Groups 1 and 2 were fed irradiated Rodent Diet 5053 (LabDiet™). The mice in Groups 3 through 19 were fed irradiated Folic Acid Deficient Purina TestDiet supplemented with 1% succinylsufathiazol from 14 days prior to dosing until 14 days after dosing was completed, at which time the study was terminated and the mice were then euthanized. All groups received drinking water ad libitum. Mice were housed in static cages in clean rooms that provide H.E.P.A filtered air into the environment at 100 complete air changes per hour. All treatments, body weight determinations, and tumor measurements were carried out in the environment. The environment was controlled to a temperature range of 70°±2° F. and a humidity range of 30-70%. […] Mice found in obvious distress or in a moribund condition were euthanized. The study was carried out in an AAALAC accredited facility.
Treatments began on Day 1. […] Mice in Groups 3 through 19 were fed irradiated Folic Acid Deficient Purina TestDiet with 1% Succinylsufathiazol for 14 days prior to dosing as well as throughout the entire experiment. All mice were dosed according to individual body weight on the day of treatment (0.2 ml/20 g).
Mice were weighed on each day of treatment and at least three times weekly thereafter. Individual body weights were recorded three times weekly. […] In this report, a dosage level is described as tolerated if treatment-related weight loss (during and two weeks after treatment) is <20%. Upon death or euthanasia, all mice were necropsied to provide a general assessment of potential cause of death and perhaps target organs for toxicity.

xenograft = experiment: In vivo xenograft study; parameters: species or system female athymic nu/nu mice; details: as of day 26; intravenously, at 80% and at 50% of the single dose maximum tolerated dose
Procedure: Briefly, for run of the experiment, a previously untreated group of 8-12 week old mice was intravenously administered a test article prepared in saline and diluted to appropriate concentrations to allow administration volumes of a maximum of 20 mL/kg. Each compound of interest was tested twice: once at 80% of the maximum tolerated dose and once at 50% of the maximum tolerated (maximum tolerated doses calculated on the single dose maximum tolerated dose study).
Mice were observed daily for clinical signs and body weights were recorded daily (except on weekend days) then biweekly until the end of study. Dosing was terminated for any group in which mean weight loss exceeded 20% or >10% of animals died. Moribund animals were euthanized.

[1] = Single dose maximum tolerated dose study; assay type: in vivo, mice; details: single intravenous dose
Procedure: Because of too much efficacy of daily dosing for ten days in a pilot xenograft study (likely due to the effects of repeated dosing), a single dose maximum tolerated dose study was conducted using a method similar to that provided in Example 3 in order to have a better dosing schedule for a comparative xenograft study.

[2] = in vivo; cited from earlier work
[3] = low folate diet, 1 mg/kg/inj dose equivalents
[4] = low folate diet, 1 mg/kg, tolerated if treatment-related weight loss <20%
[5] = low folate diet, 3.75 mg/kg/inj dose equivalents
[6] = low folate diet, 3.75 mg/kg, tolerated if treatment-related weight loss <20%
[7] = low folate diet, 15 mg/kg/inj dose equivalents
[8] = low folate diet, 15 mg/kg, tolerated if treatment-related weight loss <20%
[9] = low folate diet, dosage levels found tolerated
[10] = low folate diet, intravenously once each day for ten days, 1 mg/kg/inj dose equivalents
[11] = low folate diet, intravenously once each day for ten days, 3.75 mg/kg/inj dose equivalents
[12] = low folate diet, intravenously once each day for ten days, 15 mg/kg/inj dose equivalents
[13] = low folate diet, dosage levels found toxic
[14] = low folate diet, 60 mg/kg/inj dose equivalents

**Q.** For “4-arm-PEG20k-γ-amide-Pemetrexed Conjugate [Compound 20b]”, which “Days of Deaths (s = surviving at study end)” value (from here on “Days of Deaths”) (in vivo; [3]) is on record?
**A.** s, s, s, s, s

**Q.** And the “tolerability of the dosage level” value (in vivo; [4])?
**A.** well tolerated

**Q.** What about the “Days of Deaths” value (in vivo; [5]) of the same compound?
**A.** s, s, s, s, s

**Q.** What about the “tolerability of the dosage level” value (in vivo; [6]) of the same compound?
**A.** well tolerated

**Q.** What about the “Days of Deaths” value (in vivo; [7]) of the same compound?
**A.** s, s, s, s, s

**Q.** And the “tolerability of the dosage level” value (in vivo; [8])?
**A.** well tolerated

**Q.** What about the common clinical signs (in vivo; [9]) of the same compound?
**A.** Rough pelage

**Q.** And the necropsy findings (in vivo; [9])?
**A.** Nothing significant

**Q.** What about the “Max. Mean Body Weight change during Rx (%)” value (in vivo; [10]) of the same compound?
**A.** −1.8%

**Q.** What about the “Max. Mean Body Weight change during Rx (%)” value (in vivo; [11]) of the same compound?
**A.** −6.5%

**Q.** What about the “Max. Mean Body Weight change during Rx (%)” value (in vivo; [12]) of the same compound?
**A.** −16.9%

**Q.** What about the “Day of Max. Mean Body Weight Loss (body weight nadir)” value (“Day of Max. Mean Body Weight Loss” for short) (in vivo; [3]) of the same compound?
**A.** 5

**Q.** What about the “Day of Max. Mean Body Weight Loss” value (in vivo; [5]) of the same compound?
**A.** 5

**Q.** And the “Day of Max. Mean Body Weight Loss” value (in vivo; [7])?
**A.** 12

**Q.** And the “MTD (maximum tolerated dose)” value (in vivo; mice fed a folate deficient diet, intravenously once each day for ten days, dose equivalents)?
**A.** ~15 mg/kg

**Q.** What about the “tumor volume compared with saline control” value (xenograft) of the same compound?
**A.** significantly less tumor volume than saline control

**Q.** What about the “tumor volume compared with the other articles tested” value (xenograft) of the same compound?
**A.** lowest tumor volumes of all articles tested

**Q.** What about the “Single dose MTD” value ([1]; dose equivalents, in mg/kg) of the same compound?
**A.** 70

**Q.** What about the “BWL (body weight loss)” value ([1]; tested dose (equiv) 70) of the same compound?
**A.** −8.7%

**Q.** And the “day (of body weight loss)” value ([1]; tested dose (equiv) 70)?
**A.** 7

**Q.** What about the treatment-related deaths ([1]; tested dose (equiv) 70) of the same compound?
**A.** 0

**Q.** What about the “BWL (body weight loss)” value ([1]; tested dose (equiv) 95) of the same compound?
**A.** −16.4%

**Q.** What about the “day (of body weight loss)” value ([1]; tested dose (equiv) 95) of the same compound?
**A.** 7

**Q.** What about the treatment-related deaths ([1]; tested dose (equiv) 95) of the same compound?
**A.** 0

**Q.** And the “BWL (body weight loss)” value ([1]; tested dose (equiv) 125)?
**A.** −24.4%

**Q.** What about the “day (of body weight loss)” value ([1]; tested dose (equiv) 125) of the same compound?
**A.** 7

**Q.** What about the “mean day of death” value ([1]; tested dose (equiv) 125) of the same compound?
**A.** 9

**Q.** What about the treatment-related deaths ([1]; tested dose (equiv) 125) of the same compound?
**A.** 1

**Q.** For `Nc1nc2[nH]cc(CCc3ccc(C(=O)N[C@@H](CCC(=O)O)C(=O)O)cc3)c2c(=O)[nH]1` [Pemetrexed, pemetrexed], which MTD at 10 days (in vivo; mouse, in vivo, MTD (maximum tolerated dose), mice fed a folate deficient diet, intravenously once each day for ten days, dose equivalents) is on record?
**A.** 1 mg/kg

**Q.** What about the MTD at 10 days (in vivo; mouse, in vivo, maximum tolerated dose, mice fed a conventional diet, intravenously once each day for ten days) of the same compound?
**A.** < 250 mg/kg

**Q.** And the “maximum treatment-related body weight loss” value (in vivo; low folate diet, 1 mg/kg)?
**A.** 12.8%

**Q.** What about the “Days of Deaths” value (in vivo; [3]) of the same compound?
**A.** s, s, s, s, s

**Q.** And the “tolerability of the dosage level” value (in vivo; [4])?
**A.** tolerated

**Q.** And the “Days of Deaths” value (in vivo; [5])?
**A.** s, s, s, s, s

**Q.** What about the “tolerability of the dosage level” value (in vivo; [6]) of the same compound?
**A.** toxic

**Q.** What about the “tolerability of the dosage level” value (in vivo; [8]) of the same compound?
**A.** toxic

**Q.** And the “tolerability of the dosage level” value (in vivo; low folate diet, 60 mg/kg, tolerated if treatment-related weight loss <20%)?
**A.** toxic

**Q.** What about the “body weight nadir (Day)” value (in vivo; low folate diet, across 60, 15 and 3.75 mg/kg) of the same compound?
**A.** 10-12

**Q.** What about the common clinical signs (in vivo; [9]) of the same compound?
**A.** rough pelage

**Q.** And the necropsy findings (in vivo; [9])?
**A.** nothing significant

**Q.** And the common clinical signs (in vivo; [13])?
**A.** rough pelage and diarrhea

**Q.** What about the necropsy findings (in vivo; [13]) of the same compound?
**A.** bloated, air-filled stomachs, pale livers, and necrotic intestines

**Q.** What about the “Max. Mean Body Weight change during Rx (%)” value (in vivo; [10]) of the same compound?
**A.** −12.8%

**Q.** And the “Max. Mean Body Weight change during Rx (%)” value (in vivo; [11])?
**A.** −30.7%

**Q.** What about the “Max. Mean Body Weight change during Rx (%)” value (in vivo; [12]) of the same compound?
**A.** −38.4%

**Q.** What about the “Max. Mean Body Weight change during Rx (%)” value (in vivo; low folate diet, intravenously once each day for ten days, 60 mg/kg/inj dose equivalents) of the same compound?
**A.** −38.1%

**Q.** And the “Day of Max. Mean Body Weight Loss” value (in vivo; [3])?
**A.** 12

**Q.** What about the “% Rx Related Deaths” value (in vivo; low folate diet, 1 mg/kg/inj dose equivalents, 1 mg/kg) of the same compound?
**A.** 0%

**Q.** And the “% Rx Related Deaths” value (in vivo; low folate diet, 1 mg/kg/inj dose equivalents, listed as PMX, 1 mg/kg)?
**A.** no treatment-related mortality

**Q.** What about the “% Rx Related Deaths” value (in vivo; [5]) of the same compound?
**A.** 0%

**Q.** What about the “Day of Max. Mean Body Weight Loss” value (in vivo; [5]) of the same compound?
**A.** 12

**Q.** What about the “% Rx Related Deaths” value (in vivo; [7]) of the same compound?
**A.** 40%

**Q.** And the “Day of Max. Mean Body Weight Loss” value (in vivo; [7])?
**A.** 10

**Q.** What about the “% Rx Related Deaths” value (in vivo; [14]) of the same compound?
**A.** 100%

**Q.** What about the “Day of Max. Mean Body Weight Loss” value (in vivo; [14]) of the same compound?
**A.** 10

**Q.** And the “tolerability of the dosage level” value (in vivo; mouse, in vivo)?
**A.** toxic

**Q.** What about the Lethality (in vivo; normal diet, 500 mg/kg) of the same compound?
**A.** 100%

**Q.** And the “drug excreted unchanged in the urine” value [2]?
**A.** 70-90%

**Q.** And the half-life [2]?
**A.** 3.5 h

**Q.** And the “tumor volume compared with saline control” value (xenograft)?
**A.** significantly less tumor volume than saline control

**Q.** And the MTD ([1]; mouse, in vivo, dose equivalents)?
**A.** 50 mg/kg

**Q.** What about the “BWL (body weight loss)” value ([1]; tested dose (equiv) 50) of the same compound?
**A.** −9.7%

**Q.** And the “day (of body weight loss)” value ([1]; tested dose (equiv) 50)?
**A.** 2

**Q.** What about the treatment-related deaths ([1]; tested dose (equiv) 50) of the same compound?
**A.** 0

**Q.** What about the “BWL (body weight loss)” value ([1]; tested dose (equiv) 80) of the same compound?
**A.** −3.8%

**Q.** And the “day (of body weight loss)” value ([1]; tested dose (equiv) 80)?
**A.** 2

**Q.** And the treatment-related deaths ([1]; tested dose (equiv) 80)?
**A.** 0

**Q.** And the “BWL (body weight loss)” value ([1]; tested dose (equiv) 120)?
**A.** −4.1%

**Q.** What about the “day (of body weight loss)” value ([1]; tested dose (equiv) 120) of the same compound?
**A.** 2

**Q.** What about the treatment-related deaths ([1]; tested dose (equiv) 120) of the same compound?
**A.** 0
